Assay [1] has as its target p38a activated, mitogen-activated protein kinase-activated protein kinase 2 (MAPKAP-K2 or MK-2) enzyme (Homo sapiens (Human), UniProt P49137). Description: MK2 Omnia continuous-read kinase assay for compound potency. In kind it is biochemical. To be noted: [MK-2]=0.4 nM, [ATP]=1.0 mM, [ST3-Sox]=10 μM. An outline of the steps: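 Continuous Omnia fluorescence read (λex360/λem485) every 71 s after starting with 0.4 nM MK-2, with 1.0 mM ATP (appKM 8-10 μM) and 10 μM ST3-Sox substrate.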

Assay [2] addresses T1, MK2 (Homo sapiens (Human), UniProt P49137). The assay can be described thus: MK2 cellular assay (Hsp27 phosphorylation in Thp-1 cells). It counts as cell-based. To be noted: differentiated Thp-1 cells, compound 1 hour, 50 ng/ml LPS 15 minutes, phosphorylation of Hsp27; read-out: MK2EC50. As for the experimental part: Compounds were assayed in Thp-1 human acute monocytic leukemia cells to measure inhibition of MK2 activity. Thp-1 were grown in suspension in T225 flasks. Two days prior to assay, Thp-1 cells were spun down, counted and plated at 1×10^6 cells per well of a 12 well plate in complete media containing 10 ng/ml PMA (phorbol myristate acetate) to differentiate the cells. On day of assay, cells were washed with complete media, and compound was added to differentiated Thp-1 cells for 1 hour. Cells were washed again, and complete media containing 50 ng/ml LPS (lipopolysaccharide) was added. After 15 minutes, cells were washed once with PBS and lysed on ice with BioRad Bioplex lysis buffer. 20 μg total protein from lysates were loaded on gel and blots were probed for phosphorylation of the MK2 substrate Hsp27. Dose response inhibition of MK2 signaling in differentiated Thp-1 cells was used to determine the EC50 for compounds reported in Table A in the column entitled “MK2 EC50.”

Assay [3] deals with T1, MK2. Description: MK2 modification assessment by whole protein mass spectrometry. It counts as binding. The note with it: intact MK2, 60 min, 10-fold excess of compound to protein. The method, boiled down:
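MK2 treated with compound is analysed intact by MALDI-TOF after C4 cleanup in sinapinic acid matrix. Percent modification is the centroid mass shift against control MK2 divided by compound mass.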

Chain of p38a activated, mitogen-activated protein kinase-activated protein kinase 2 (MAPKAP-K2 or MK-2) enzyme (P49137 whole entry): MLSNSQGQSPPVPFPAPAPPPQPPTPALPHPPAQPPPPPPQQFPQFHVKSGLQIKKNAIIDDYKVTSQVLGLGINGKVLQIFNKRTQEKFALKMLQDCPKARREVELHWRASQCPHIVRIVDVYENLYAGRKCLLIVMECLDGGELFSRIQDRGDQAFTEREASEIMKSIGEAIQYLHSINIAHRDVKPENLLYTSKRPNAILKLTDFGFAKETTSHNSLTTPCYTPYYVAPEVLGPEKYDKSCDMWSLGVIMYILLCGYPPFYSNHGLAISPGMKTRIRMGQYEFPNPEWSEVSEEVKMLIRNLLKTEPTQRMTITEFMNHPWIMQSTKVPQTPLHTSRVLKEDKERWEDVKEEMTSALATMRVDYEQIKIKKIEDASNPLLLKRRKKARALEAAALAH
T1 sequence (P49137 whole entry): as above

The term IC50 denotes the concentration that inhibits the measured activity by half. Turning to `C=CC(=O)Nc1cc(-c2cc3c(cn2)CCc2c-3[nH]c3c2C(=O)NC2(CC2)C3)cnc1OCCOC` [II-8, N-(2-(2-methoxyethoxy)-5-(7′-oxo-5′,6′,7′,8′8′,1′,11′-hexahydrospiro[cyclopropane-1,9′-pyrido[3′,4′:4,5]pyrrolo[2,3-f]isoquinolin]-2′-yl)pyridin-3-yl)acrylamide], in assay [1], the IC50 is below 100 nM. Besides, at MK2 [2], the EC50 is below 100 nM. For the same molecule, the “MK2 Mass Mod” value at MK2 [3] is “E (mass modification of ≥70%)”.
Take `C=CC(=O)Nc1cc(-c2cc3c(cn2)CCc2c-3[nH]c3c2C(=O)NCC3)ccc1OC` [II-2, N-(2-methoxy-5-(7-oxo-6,7,8,9,10,11-hexahydro-5H-pyrido[3′,4′:4,5]pyrrolo[2,3-f]isoquinolin-2-yl)phenyl)acrylamide]: the IC50 in assay [1] is below 100 nM. Further, on MK2 [2], the EC50 was below 100 nM. Further, on MK2 [3], the “MK2 Mass Mod” value is “E (mass modification of ≥70%)”.
For the molecule `C=CC(=O)Nc1cc(OCC)ccc1Nc1c(C)c(NC2CCCNC2)nc2ccnn12` (stereo not drawn) [IV-2, N-(5-ethoxy-2-((6-methyl-5-(piperidin-3-ylamino)pyrazolo [1,5-a]pyrimidin-7-yl)amino)phenyl)acrylamide], the IC50 in assay [1] is 101 to 500 nM. On MK2 [2], the EC50 is above 1000 nM. Moreover, at MK2 [3], the “MK2 Mass Mod” value is “E (mass modification of ≥70%)”.
`C=CC(=O)Nc1ncccc1NC(=O)c1ccc2cc3n(c2c1)C1(CCC1)CNC3=O` [Compound V-57, N-(2-acrylamidopyridin-3-yl)-1′-oxo-2′,3′-dihydro-1′H-spiro[cyclobutane-1,4′-pyrazino[1,2-a]indole]-7′-carboxamide]: the IC50 in assay [1] is below 100 nM. The EC50 at MK2 [2] is 101 to 500 nM. In addition, at MK2 [3], the “MK2 Mass Mod” value was “E (mass modification of ≥70%)”.
Consider `C=CC(=O)Nc1cc(NC(=O)c2ccc3cc4n(c3c2)C2(CCC2)CNC4=O)ccc1N1CCN(C)CC1` [Compound V-15, N-(3-acrylamido-4-(4-methylpiperazin-1-yl)phenyl)-1′-oxo-2′,3′-dihydro-1′H-spiro[cyclobutane-1,4′-pyrazino[1,2-a]indole]-7′-carboxamide], for which, in assay [1], the IC50 was below 100 nM. The EC50 on MK2 [2] is 101 to 500 nM. On MK2 [3], the “MK2 Mass Mod” value was “E (mass modification of ≥70%)”.
Turning to `C=CC(=O)Nc1cc(-c2cc3c(ccc4c5c(n(C)c43)CCC5=O)cn2)cnc1OC` [II-e-21, N-(2-methoxy-5-(10-methyl-7-oxo-7,8,9,10-tetrahydrocyclopenta[4,5]pyrrolo[2,3-f]isoquinolin-2-yl)pyridin-3-yl)acrylamide], the IC50 in assay [1] fell in the range of 501 to 999 nM. Besides, at MK2 [2], the EC50 is above 1000 nM. Moreover, at MK2 [3], the “MK2 Mass Mod” value is listed as “E (mass modification of ≥70%)”.
As for `C=CC(=O)N1CCOc2ncc(-c3cc4c(cn3)CCc3c-4[nH]c4c3C(=O)NC3(CC3)C4)cc21` [II-9, 2′-(1-acryloyl-2,3-dihydro-1H-pyrido[2,3-b][1,4]oxazin-7-yl)-5′,6′,10′,11′-tetrahydrospiro[cyclopropane-1,9′-pyrido[3′,4′:4,5]pyrrolo[2,3-f]isoquinolin]-7′(8′H)-one], in assay [1], the half-inhibitory concentration (IC50) was below 100 nM. In addition, on MK2 [2], the EC50 is above 1000 nM. Besides, at MK2 [3], the “MK2 Mass Mod” value is “E (mass modification of ≥70%)”.
Regarding `C=CC(=O)Nc1cc(-c2cc3c(cn2)CCc2c-3[nH]c3c2C(=O)NCC3)ccc1OCCOC` [II-16, N-(2-(2-methoxyethoxy)-5-(7-oxo-6,7,8,9,10,11-hexahydro-5H-pyrido[3′,4′:4,5]pyrrolo[2,3-f]isoquinolin-2-yl)phenyl)acrylamide], the IC50 in assay [1] is below 100 nM. Further, the EC50 at MK2 [2] was below 100 nM. Besides, the “MK2 Mass Mod” value at MK2 [3] was “E (mass modification of ≥70%)”.
`C=CC(=O)Nc1cc(NC(=O)c2ccc3sc4c(c3c2)NC[C@@H](C)NC4=O)ccc1OCCOC` [III-7, (R)—N-(3-acrylamido-4-(2-methoxyethoxy)phenyl)-3-methyl-5-oxo-2,3,4,5-tetrahydro-1H-benzo[4,5]thieno[3,2-e][1,4]diazepine-9-carboxamide]: the IC50 in assay [1] is below 100 nM. The EC50 at MK2 [2] is above 1000 nM. Also, at MK2 [3], the “MK2 Mass Mod” value is “E (mass modification of ≥70%)”.
On to `C=CC(=O)Nc1cc(-c2cc3c(ccc4c5c(n(C)c43)CCC5=O)cn2)ccc1N1CCN(C)CC1` [II-e-15, N-(5-(10-methyl-7-oxo-7,8,9,10-tetrahydrocyclopenta[4,5]pyrrolo[2,3-f]isoquinolin-2-yl)-2-(4-methylpiperazin-1-yl)phenyl)acrylamide], for which the IC50 in assay [1] is below 100 nM. Besides, at MK2 [2], the EC50 was 101 to 500 nM. Besides, the “MK2 Mass Mod” value at MK2 [3] is given as “E (mass modification of ≥70%)”.
For `C=CC(=O)Nc1ccccc1NC(=O)c1ccc2sc3c(c2c1)NC[C@@H](C)NC3=O` [III-10, (R)—N-(2-acrylamidophenyl)-3-methyl-5-oxo-2,3,4,5-tetrahydro-1H-benzo[4,5]thieno[3,2-e][1,4]diazepine-9-carboxamide] the same measures were 101 to 500 nM, above 1000 nM and “E (mass modification of ≥70%)”.
Consider `C=CC(=O)N1CCc2ccc(NC(=O)c3ccc4cc5n(c4c3)C3(CCC3)CNC5=O)cc21` [Compound V-45, N-(1-acryloylindolin-6-yl)-1′-oxo-2′,3′-dihydro-1′H-spiro[cyclobutane-1,4′-pyrazino[1,2-a]indole]-7′-carboxamide], for which the IC50 in assay [1] is below 100 nM. In addition, the EC50 on MK2 [2] is 101 to 500 nM. The “MK2 Mass Mod” value at MK2 [3] was “E (mass modification of ≥70%)”.
Turning to `C=CC(=O)Nc1cccc2[nH]c(-c3ccc4cc5n(c4c3)C3(CCC3)CNC5=O)nc12` [Compound V-63, N-(2-(1′-oxo-2′,3′-dihydro-1′H-spiro[cyclobutane-1,4′-pyrazino [1,2-a]indol]-7′-yl)-1H-benzo[d]imidazol-4-yl)acrylamide], the half-inhibitory concentration (IC50) in assay [1] is below 100 nM. Further, the EC50 at MK2 [2] is below 100 nM. Also, at MK2 [3], the “MK2 Mass Mod” value is listed as “E (mass modification of ≥70%)”.
`C=CC(=O)Nc1cc(NC(=O)c2ccc3sc4c(c3c2)NC[C@@H](C)NC4=O)ccc1N1CCNCC1` [III-5, (R)—N-(3-acrylamido-4-(piperazin-1-yl)phenyl)-3-methyl-5-oxo-2,3,4,5-tetrahydro-1H-benzo[4,5]thieno[3,2-e][1,4]diazepine-9-carboxamide]: the IC50 in assay [1] is below 100 nM. Further, on MK2 [2], the EC50 is above 1000 nM. For the same molecule, the “MK2 Mass Mod” value at MK2 [3] was “E (mass modification of ≥70%)”.
Turning to `C=CC(=O)Nc1cc(-c2cc3c(cn2)CCc2c-3[nH]c3c2C(=O)NC2(CC2)C3)cnc1OC` [II-5, N-(2-methoxy-5-(7′-oxo-5′,6′,7′,8′,10′,11′-hexahydrospiro[cyclopropane-1,9′-pyrido[3′,4′:4,5]pyrrolo[2,3-f]isoquinolin]-2′-yl)pyridin-3-yl)acrylamide], in assay [1], the IC50 is below 100 nM. The EC50 on MK2 [2] was below 100 nM. Also, the “MK2 Mass Mod” value at MK2 [3] is “E (mass modification of ≥70%)”.
Take `C=CC(=O)Nc1cc(-c2cc(-c3cc4c([nH]3)C3(CCCNC3)CNC4=O)ccn2)cc(C(F)(F)F)c1` (stereo not drawn) [Compound I-9]: the IC50 in assay [1] was below 100 nM. In addition, the EC50 on MK2 [2] was above 1000 nM. Besides, the “MK2 Mass Mod” value at MK2 [3] is reported as “E (mass modification of ≥70%)”.
For the molecule `C=CC(=O)NC1CCCC1NC(=O)c1ccc2cc3n(c2c1)C1(CCC1)CNC3=O` (racemic) [Compound V-56, N-trans-(2-acrylamidocyclopentyl)-1′-oxo-2′,3′-dihydro-1′H-spiro[cyclobutane-1,4′-pyrazino[1,2-a]indole]-7′-carboxamide (racemic)], the IC50 in assay [1] is above 1000 nM. The EC50 on MK2 [2] is above 1000 nM. The “MK2 Mass Mod” value at MK2 [3] was “F (mass modification of 31-69%)”.

The values are drawn from patent publication US11098061B2 (Celgene CAR LLC, priority 2013, dated 2021).
